Assays:
[1] = system: human liver microsomes (HLM); assay: Hydrolysis to ritalinic acid by human liver microsomes; format: in vitro ADME; conditions: 1 mM substrate, 0.2 mg/ml HLM, 37° C., 60 min
Description: (§1) FIG. 2—Hydrolysis of methylphenidate (MPH) and isopropylphenidate (IPH) by recombinant human CES1, HLM, HIM. After incubation with CES 1 transfected human cells, HLM, and HIM at 37° C. for 60 min, the metabolite RA produced via hydrolysis of MPH and IPH was determined by HPLC. Data are presented as mean±SEM of 3 to 6 independent experiments.
(§2) Determination of Relative Hydrolytic Rates of MPH and IPH. The assessment of relative rates of hydrolysis of the two ester compounds utilized both cell culture and human liver microsomes (HLM) and human intestinal microsomes (HIM). The human carboxylesterase 1 (hCES1) s9 fraction was prepared utilizing a novel method developed in the inventors' laboratory previously (Zhu et al., 2008). Hydrolysis of IPH and MPH by hCES1, HLM, and human intestinal microsomes was assessed by incubating the substrates with the respective enzymes and measuring the formation of the major metabolite RA formed via ester hydrolysis. Briefly, 50 μl of freshly prepared substrates (IPH and MPH) was mixed with 50 μl of enzymes in 1.5 ml Eppendorf tubes yielding a total volume of 100 μl. […] Concentrations of the primary hydrolytic product of the two compounds, RA were determined utilizing a validated HPLC method previously described.

[2] = system: human intestinal microsomes (HIM); assay: Hydrolysis to ritalinic acid by human intestinal microsomes; format: in vitro ADME; conditions: 1 mM substrate, 0.2 mg/ml HIM, 37° C., 60 min
Description: as §1, §2

[3] = biological target: T1, [3H]-(±)-MPH binding to rat brain striatal synaptosomes (Rattus norvegicus, UniProt P23977); conditions: mg/mg comparison; cited from earlier work
T1 construct: host or cells: rat brain striatal synaptosomes

[4] = biological target: T2, human carboxylesterase 1 (hCES1) (Homo sapiens, UniProt P23141); assay: Hydrolysis to ritalinic acid by recombinant hCES1 (s9 fraction of transfected cells); format: in vitro ADME; conditions: 1 mM substrate, 60 min
T2 construct: expressed in transfected cells
T2 sequence (P23141 18-567): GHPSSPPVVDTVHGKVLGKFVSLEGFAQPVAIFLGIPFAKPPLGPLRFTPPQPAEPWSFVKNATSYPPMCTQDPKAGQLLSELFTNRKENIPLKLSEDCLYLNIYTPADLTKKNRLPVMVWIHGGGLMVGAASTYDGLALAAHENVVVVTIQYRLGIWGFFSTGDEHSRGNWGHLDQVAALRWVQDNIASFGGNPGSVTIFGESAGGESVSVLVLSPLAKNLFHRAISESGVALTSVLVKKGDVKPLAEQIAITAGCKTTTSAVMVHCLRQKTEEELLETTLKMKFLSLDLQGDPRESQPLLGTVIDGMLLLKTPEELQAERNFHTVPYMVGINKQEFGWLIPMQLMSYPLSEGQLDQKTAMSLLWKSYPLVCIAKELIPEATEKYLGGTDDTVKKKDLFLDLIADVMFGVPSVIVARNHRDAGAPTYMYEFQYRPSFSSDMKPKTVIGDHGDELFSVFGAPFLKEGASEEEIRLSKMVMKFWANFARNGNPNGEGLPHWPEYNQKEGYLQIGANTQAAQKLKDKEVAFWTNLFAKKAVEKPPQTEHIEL
Description: as §1, §2

[5] = system: DA uptake, synaptosomes prepared from the rat striatum; assay: Dopamine uptake into synaptosomes; format: cell-based
Description: Transporter Binding and Cellular Uptake. All described monoamine transporter binding studies as well as cellular uptake assays were performed in duplicate by CEREP (Celle l'Evescault, France) and are described below. Further details of all assays performed may be accessed at the CEREP web site (world-wide-web at cerep.com). Cellular-based assays were conducted to provide complementary in vitro functional measures to complement the standard transporter assays as well as to provide direct comparisons of the homologs IPH with MPH with regard to DA, NE, and 5-HT uptake in synaptosomal preparations.
Dopamine Uptake. The evaluation of the effects of the two compounds on DA uptake again utilized synaptosomes but this time prepared from the rat striatum. […] After incubation, the samples were filtered, counted, and the results expressed as a percent inhibition of the control uptake of [^3H]dopamine by scintillation count. The standard inhibitory reference compound was GBR12909, which was tested in each experiment at several concentrations to obtain an inhibition curve from which its IC50 value was calculated.

[6] = biological target: T3, hCES1 (Homo sapiens, UniProt P23141); assay: Transesterification potential in the presence of ethanol, s9 fraction of hCES1-transfected cells; conditions: for effect of ethanol on formation of the hydrolytic product RA: hCES1 s9; for EPH formation with ethanol when hCES1 was not present: incubation with ethanol, no hCES1
T3 sequence (P23141 18-567): T2 sequence (P23141 18-567)
Description: FIG. 3—Transesterification potential of isopropylphenidate (IPH) versus methylphenidate (MPH) by s9 fractions of CES1 transfected cells in the presence of ethanol. MPH (1 mM) or IPH (1 mM) was incubated with s9 fractions of hCES1 overexpressing cells (2 mg/ml) in the presence or absence of ethanol (10 mM) at 37° C. for 30 min. The transesterification product EPH and hydrolytic metabolite RA were analyzed utilizing established HPLC assays. […] Data are expressed as mean±SEM of three independent experiments.
An In Vitro Investigation of the Transesterification Potential of Isopropylphenidate versus Methylphenidate in the Presence of Ethanol. The s9 fraction of hCES1-transfected cells, d1-MPH), dl-IPH, and ethanol working solution were prepared in DPBS containing 20 mM HEPES, pH7.4. The reaction was initiated by mixing 200 μl of s9 fraction, 100 μl of substrates (MPH or IPH) and 100 μl of ethanol. The final concentrations of s9 fraction protein, MPH, IPH, and ethanol were 2 mg/ml, 1 mM, 1 mM, and 10 mM, respectively. After incubation at 37° C. for 1 h, the reaction was terminated by adding a four-fold concentration of ice-cold methanol. The samples were then centrifuged at 16,000 g for 5 min, and the resulting supernatant was subjected to HPLC analysis to assess each for the formation and/or concentration of the hydrolytic product of both MPH and IPH, and common metabolite RA. Additionally, the samples were assayed for the presence of the transesterification metabolite ethylphenidate (EPH). Further, the s9 fraction prepared from the vector-transfected cells was included in this study as a control for any non-enzymatic hydrolysis which might occur. The hCES1 mediated MPH and IPH hydrolysis was estimated by deducting the amounts of RA produced in the vector s9 samples from the RA formation observed in the hCES1 s9 samples.

[7] = system: dogs; conditions: reserpine pre-treated dogs; cited from earlier work

T1 sequence (P23977 whole entry): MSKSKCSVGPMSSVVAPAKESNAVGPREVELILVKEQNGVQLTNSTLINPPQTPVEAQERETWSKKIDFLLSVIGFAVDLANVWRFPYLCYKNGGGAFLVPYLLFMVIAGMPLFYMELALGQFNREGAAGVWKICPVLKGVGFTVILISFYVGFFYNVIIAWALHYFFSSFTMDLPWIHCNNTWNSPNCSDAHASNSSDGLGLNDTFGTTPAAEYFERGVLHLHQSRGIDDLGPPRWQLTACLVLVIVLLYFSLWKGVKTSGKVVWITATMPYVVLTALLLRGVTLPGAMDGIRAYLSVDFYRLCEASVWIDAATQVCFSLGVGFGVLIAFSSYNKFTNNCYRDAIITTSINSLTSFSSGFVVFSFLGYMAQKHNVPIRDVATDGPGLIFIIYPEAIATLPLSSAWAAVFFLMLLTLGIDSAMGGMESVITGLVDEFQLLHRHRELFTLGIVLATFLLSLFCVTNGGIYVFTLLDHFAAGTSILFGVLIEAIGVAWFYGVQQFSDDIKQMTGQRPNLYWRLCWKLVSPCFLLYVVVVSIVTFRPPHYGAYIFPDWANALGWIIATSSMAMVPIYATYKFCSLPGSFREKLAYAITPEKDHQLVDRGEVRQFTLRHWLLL

| SMILES | resistance to hydrolysis by HLM [1] | catalytic activity of HIM on hydrolysis [2] | activity relative to MPH in inhibition of [3H]-(±)-MPH binding [3] | substrate quality for hCES1 hydrolysis ([4]; 37° C.) | % inhibition of control specific binding; [3H]DA incorporation into synaptosomes ([5]; 10 μM, rat striatum synaptosomes) [%] | velocity of hCES1-mediated transesterification to EPH ([6]; 1 mM substrate, 10 mM ethanol, 2 mg/ml s9 protein, 37° C.) [pmole/min/mg protein] | effect of ethanol on formation of the hydrolytic product RA ([6]; 10 mM ethanol) | EPH formation with ethanol when hCES1 was not present [6] | potency versus MPH in antagonizing the physiological influences of reserpine [7] | catalytic efficiency of hCES1-mediated hydrolysis, MPH relative to IPH ([4]; 0.5 mg/ml hCES1, 37° C., RA formation by HPLC) | inhibition at 10 µM ([5]; Rattus norvegicus, read-out: % inhibition of control specific binding, [3H]DA incorporation into synaptosomes) [%] |
| --- | --- | --- | --- | --- | --- | --- | --- | --- | --- | --- | --- |
| CC(C)OC(=O)C(c1ccccc1)C1CCCCN1 (racemic) [IPH, dl-threo-α-phenyl-2-piperidineacetic acid isopropyl ester] | most resistant substrate to HLM | extremely low | approximately one third | poor substrate of hCES1 | 96 | 47.5±3.3 | significantly decreased | no EPH formation was observed | lower potency |  |  |
| COC(=O)C(c1ccccc1)C1CCCCN1 (racemic) [MPH, dl-threo-methylphenidate, reference compound] |  | extremely low |  |  |  |  | significantly decreased | no EPH formation was observed |  | approximately 10 fold | 90 |

From patent US20120245201A1, “Isopropylphenidate for Treatment of Attention-Deficit/Hyperactivity Disorder and Fatigue-Related Disorders and Conditions” (priority 2009, published 2012)
